Reference: article PMC12027443, “Surface Plasmon Resonance (SPR) for the Binding Kinetics Analysis of Synthetic Cannabinoids: Advancing CB1 Receptor Interaction Studies” (International Journal of Molecular Sciences, 2025)
Read-outs that look alike come from different tables or passages of the source.

Legend:
CB1 receptor [1] = molecular target: T1, CB1 receptor (Homo sapiens, UniProt P21554); assay: Surface Plasmon Resonance (SPR) affinity assay, CB1 protein immobilized on CM5 chip (Biacore T200); assay type: binding
Method: The ligand immobilization was conducted in four steps: ligand pre-enrichment, activation, coupling, and blocking. To prepare the 1.05× PBS-P buffer, it was diluted from the 10× PBS-P buffer. For ligand pre-enrichment, the Biacore T200 (cytiva, Marlborough, MA, USA; manufactured in Sweden) pre-enrichment program was employed. The 300 μg/mL protein stock solution was diluted to a final concentration of 15 μg/mL using 10 mM sodium acetate solutions at pH 4.0, 4.5, 5.0, and 5.5, respectively. The ligand was flowed over the surface of a blank chip at a flow rate of 30 μL/min to assess the effect of electrostatic adsorption. Based on the response difference and slope, the optimal coupling pH of 4.0 was selected. For activation, the Biacore T200 manual coupling program was used. The carboxylic acid groups on the chip surface were activated by injecting a 1:1 mixture of EDC and NHS from the amino-coupling kit at a flow rate of 10 μL/min for 900 s. During the coupling step, the 300 μg/mL protein stock solution was diluted 10-fold to 30 μg/mL using sodium acetate at pH 4.0. […]
For solvent correction, eight solvent correction points were established, with correction cycles performed at the beginning, end, and every 30 samples during the experiment. […] The system continuously monitored and recorded the sensorgram of the interaction between the sample and the CB1 protein in real time. […]

CB1 receptor [2] = molecular target: T1, CB1 receptor; design: method as in PMID 26686391; details: read-out: GTPγS Binding Assay Ki Value; Table 2; cited from earlier work
CB1 receptor [3] = molecular target: T1, CB1 receptor; design: method as in PMID 31021521; details: read-out: βarr2 Recruitment Assay EC50 Values; HEK293T cell lines; Table 3; cited from earlier work
CB1 receptor [4] = molecular target: T1, CB1 receptor; design: method as in PMID 40180269; details: SPR affinity assessment, earlier study, cited from earlier work
mice [5] = test system: mice; design: method as in PMID 40180269; details: ranking among 4F-ABUTINACA, JWH-018, SDB-005; cited from earlier work
mice [6] = test system: mice; design: method as in PMID 40180269; details: hypothermia, motor suppression, catalepsy; ranking among 4F-ABUTINACA, JWH-018, SDB-005; cited from earlier work
mice [7] = test system: mice; design: method as in PMID 40180269; details: cited from earlier work

T1 sequence (P21554 whole entry): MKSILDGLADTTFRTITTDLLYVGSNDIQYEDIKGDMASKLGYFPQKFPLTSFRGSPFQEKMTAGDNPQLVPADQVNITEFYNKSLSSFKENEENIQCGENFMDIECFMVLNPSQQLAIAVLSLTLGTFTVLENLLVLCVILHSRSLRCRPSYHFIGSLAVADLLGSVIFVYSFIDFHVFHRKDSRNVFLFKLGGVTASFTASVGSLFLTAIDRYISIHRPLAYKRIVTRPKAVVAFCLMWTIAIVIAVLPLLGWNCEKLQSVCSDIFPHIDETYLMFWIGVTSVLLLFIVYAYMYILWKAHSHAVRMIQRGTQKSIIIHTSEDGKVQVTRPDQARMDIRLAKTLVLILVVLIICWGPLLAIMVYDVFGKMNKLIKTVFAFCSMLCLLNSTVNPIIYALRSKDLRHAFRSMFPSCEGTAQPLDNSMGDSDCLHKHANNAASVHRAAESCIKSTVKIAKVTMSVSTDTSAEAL

SMILES | Ki (CB1 receptor [2]) [nM] | reward potential in the CPP test (mice [5]) | effects in the tetrad test (mice [6]) | also measured
C=CCCCn1nc(C(=O)NC(C(=O)OC)C(C)(C)C)c2ccccc21 (centres unmarked) [MDMB-4en-PINACA] |  |  |  | affinity relative to AMB-4en-PICA (CB1 receptor [1]; ratio of KD values, MDMB-4en-PINACA versus AMB-4en-PICA): six-fold higher affinity
O=C(NC12CC3CC(CC(C3)C1)C2)c1nn(CCCCCF)c2ccccc12 [5F-AKB-48] | 0.87 |  |  | reduction in the KD value on substitution of parent core from indole to indazole (CB1 receptor [1]; 5F-AKB-48 versus STS-135): 50%
CC(C)C(NC(=O)c1nn(CC2CCCCC2)c2ccccc12)C(N)=O (centres unmarked) [AB-CHMINACA] |  |  |  | EC50 (CB1 receptor [3]): 0.34 nM
O=C(NC12CC3CC(CC(C3)C1)C2)c1nn(CCCCF)c2ccccc12 [4F-ABUTINACA] |  | strongest reward potential | most pronounced effects | Kd (CB1 receptor [4]; read-out: KD): 20100 nM; LD50 (acute toxicity) (mice [7]): 11.62 mg/kg
CCCCCn1cc(C(=O)c2cccc3ccccc23)c2ccccc21 [JWH-018] | 3.38 | intermediate | intermediate | EC50 (CB1 receptor [3]): 36.8 nM; Kd (CB1 receptor [4]): 39300 nM
CCCCCn1nc(C(=O)Oc2cccc3ccccc23)c2ccccc21 [SDB-005] |  | weaker | weaker | Kd (CB1 receptor [4]; read-out: KD): 53000 nM
O=C(NC12CC3CC(CC(C3)C1)C2)c1cn(CCCCCF)c2ccccc12 [STS-135] | 1.93 |  |  | 
